Columns and labels:
[1] = Absorption characteristic of fluorescent probe with and without ATP; type: physicochemical; details: 10 μM, pH 5.5 PBS (0.1% acetonitrile)
Method: Specifically, to observe the absorption characteristic of the fluorescent probe, the present inventors measured an absorbance spectrum by filling, with a pH 5.5 PBS solution (with 0.1% acetonitrile) comprising 10 μM Compound 4, a quartz fluorescence cell (114F-QS, Hellma Analytics) with a 1 cm light path, and a graph of the absorbance (y-axis) with respect to the wavelength (x-axis) is shown in FIG. 1A. In addition, another absorbance spectrum was measured by filling a quartz fluorescence cell (114F-QS, Hellma Analytics) with a 1 cm light path with a pH 5.5 PBS solution (with 0.1% acetonitrile) comprising 10 μM Compound 4 and 1 mM ATP, and a graph of the absorbance (y-axis) with respect to the wavelength (x-axis) is shown in FIG. 1B. […] On the other hand, in FIG. 1B in which ATP was detected, a new absorption was observed near 540 nm in addition to 400 nm. The absorbance spectra were obtained using the HP 8453 UV/Vis spectrophotometer.

[2] = Fluorescence ATP detection characteristic, ratiometric, in PBS solution
Method: Specifically, to observe the ATP detection characteristic of Compound 4, the present inventors measured a fluorescence spectrum (the fluorescence spectrum was obtained using a Photon Technical International Fluorescence System) by filling a quartz fluorescence cell (114F-QS, Hellma Analytics) with a 1 cm light path with a pH 5.5 PBS solution (with 0.1% acetonitrile) comprising 10 μM Compound 4 and ATP (0.0-1.0 mM), and graphs of the normalized fluorescence intensity (y-axis) with respect to the wavelength (x-axis) are shown in FIG. 2A. […] In addition, to assess the feasibility of quantification by a ratiometric detection system, the correlation between the ATP concentration (x-axis) and the fluorescence ratio (the ratio between two types of fluorescence) (y-axis) was provided in FIG. 2B. As appears in FIG. 2B, the proportional relationship between the ATP concentration and the ratio between two types of fluorescence proves the feasibility of quantification by a ratiometric detection system.
In order to assess the correlation between the ATP detection by Compound 4 and the pH of the solution, the present inventors measured a fluorescence spectrum (the fluorescence spectrum was obtained using a Photon Technical International Fluorescence System) by filling a quartz fluorescence cell (114F-QS, Hellma Analytics) with a 1 cm light path with a PBS solution (with 0.1% acetonitrile) with a pH range of 4.0 to 8.0 comprising 10 μM Compound 4 and ATP (0.0-1.0 mM), and graphs of the fluorescence ratio (y-axis) with respect to the pH (x-axis) are shown in FIG. 3A. According to FIG. 3A, the detectability changed with pH. It was observed that ATP was detected only under acidic conditions (pH 4.8-5.8) of lysosomes, which are the only organelles maintaining acidic conditions in cells, and was not detected at near-neutral pH (pH 7.0-7.5), which corresponds to the pH of most cells. In addition, the fluorescence ratio (y-axis) that changes with respect to the ATP concentration (x-axis) is provided for the pH range of 4.5 to 5.5 in FIG. 3B.

[3] = Selectivity of ATP detection among various cations and anions (fluorescence ratio); details: 10 μM, pH 5.5 PBS, analytes at 1 mM
Method: In order to examine the selectivity of Compound 4 in ATP detection, the present inventors measured a fluorescence spectrum (the fluorescence spectrum was obtained using a Photon Technical International Fluorescence System) by filling a quartz fluorescence cell (114F-QS, Hellma Analytics) with a 1 cm light path with a pH 5.5 PBS solution (with 0.1% acetonitrile) comprising Compound 4 at 10 μM and various cations and anions (ATP, ADP, AMP, cytidine triphosphate (CTP), uridine triphosphate (UTP), guanosine triphosphate (GTP), thymine triphosphate (TTP), […] (PPi), phosphoric acid (H3PO4), nitrate anions (NO3^−), phosphate anions (PO4^3−), dithionite ion (S2O4^2−), sulfate ion (SO4^2−), acetate ion, nitrite ion (NO2^−), perchlorate ions (ClO4^−), citrate ions, monohydrogen phosphate ions (HPO4^2−), cyanide ions (CN^−), nickel ions (Ni^+), silver ions (Ag^+), manganese ions (Mn^2+), palladium ions (Pd^2+), cadmium ions (Cd^2+), cobalt ions (Co^3+), iron ions (Fe^+), zinc ion (Zn^2+), copper ion (Cu^2+), potassium ion (K^+), magnesium ion (Mg^2+), calcium ions (Ca^2+), sodium ions (Na^+), lead ions (Pb^2+), and chromium ions (Cr^3+)) at 1 mM, and the fluorescence ratios (y-axis) for various analytes (x-axis) were provided in FIG. 4.

HeLa cells = assay: MTT assay cytotoxicity / cell viability; type: cell-based
Method: The present inventors examine the cytotoxicity of Compound 4 (R1═R2═H), which is the fluorescent probe according to embodiments of the present invention, by treating HeLa cells (human uterine cancer cells) with the compound, and the results are provided in FIG. 5.
To examine the cytotoxicity of Compound 4, an MTT assay was conducted on the HeLa cells and the cell viability was assessed.
Specifically, the cells (100 μL/well) were prepared in a 96-well plate at the density of about 5×10^3 cells per well. The cells were treated with Compound 4 at the concentration of 10, 30, 50, or 100 μM, cultured for 1 hour, and then washed with a PBS buffer solution. 25 μL of a 5 mg/mL 3-(4,5-[…])-2,5-diphenyltetrazolium bromide (MTT) solution was put in each well. After culturing for 2 hours at 37° C., the medium was removed, formazan crystals were dissolved in dimethyl sulfoxide (DMSO), and the absorbance was measured using a plate reader. According to FIG. 5, Compound 4 was confirmed to have low cytotoxicity up to the concentration of 10 μM within 24 hours (about 8% of the cells died). In addition, even when the concentration of Compound 4 was increased to 100 μM, it was confirmed that cytotoxicity within 8 hours was low (about 20% of the cells died), which indicated the possibility of conducting experiments in the corresponding range.

[4] = test system: lysosomal ATP in HeLa cells; assay: Lysosomal selectivity: colocalization with LysoTracker by one-photon and two-photon fluorescence microscopy; type: cell-based, human
Method: The present inventors treated HeLa cells with Compound 4 (R1═R2═H), which is a fluorescent probe, examined a fluorescence emission phenomenon through two-photon fluorescence microscopy, and assessed lysosomal selectivity by treating the cells also with LysoTracker (Life Technologies Corp.), which is a lysosome marker widely used to assess lysosomal selectivity, and then performing one-photon and two-photon fluorescence microscopy. The scale bar in FIG. 6 is 25 μm.
Each cell was cultured in Minimum Essential Medium with Earle's Balanced Salts (MEM/EBSS) of Hyclone™ GE Healthcare Life Sciences and a Dulbecco's modified Eagle's medium (DMEM), and the culture was carried out at 37° C. […] The cells prepared as thus were observed through two-photon fluorescence microscopy to obtain fluorescence images, and the two-photon fluorescence microscopic images were obtained at a 780 nm excitation wavelength and through a laser power of 4 mW respectively in the blue channel (440-490 nm), yellow channel (550-600 nm), and red channel (650-700 nm). […]
The experiment was repeated with LysoTracker Deep Red (Life Technologies Corp.). HeLa cells were treated with LysoTracker, and then a fluorescence image thereof was obtained with a one-photon fluorescence microscope (TCS SP5 II, Leica, Germany). […]

[5] = test system: lysosomal ATP in rat brain tissue; assay: Two-photon microscopic imaging of rat brain tissue treated with fluorescent probe; details: rat brain tissue slice, 30 μM, 20 minutes, 780 nm two-photon excitation
Method: The present inventors treated a rat brain tissue with Compound 4 (R1═R2═H), which is the fluorescent probe according to embodiments of the present invention and observed the changes in fluorescence through two-photon fluorescence microscopy, and the results are provided in FIG. 8. The scale bar in FIG. 8 is 80 μm.
Specifically, to obtain a two-photon fluorescence microscopic image of a rat tissue treated with Compound 4, an experiment was carried out under a condition of isolated from light (in a dark room) using a […] rat (5 weeks old, male, Samtako Inc.). The brain of the rat was dissected and washed with a PBS buffer solution, and then the individual organs were frozen with dry ice for 5 minutes. The frozen organs were broken with a hammer, and 50 μm-thick tissue slice samples were prepared using a cryostat machine (CM3000, Leica). […] The fluorescence was observed through two-photon fluorescence microscopy. The two-photon fluorescence microscope was configured with a 20× objective lens (HCX APO L 20×/1.00 W, Leica, Germany), and the observation was carried out using a Ti: Sapphire laser (Chameleon Ultra II, Coherent) with 6 mW laser output and at a 780 nm two-photon excitation wavelength.

CCNc1cc2c(cc1C)C1(c3cc(C)c(NCC)cc3O2)c2ccccc2C(=O)N1CCNCCNCCNC1=C2C=CC=[N+]2[B-](F)(F)n2cccc21 [Compound 4, 10-((2-((2-((2-(3′,6′-bis(ethylamino)-2′,7′-dimethyl-3-oxospiro[isoindoline-1,9′-xanthen]-2-yl)ethyl)amino)ethyl)amino)ethyl)amino)-5,5-difluoro-5H-dipyrrolo[1,2-c:2′,1′-f][1,3,2]diazaborinin-4-ium-5-uide]
new absorption wavelength when ATP was detected ([1]; 1 mM ATP, in addition to 400 nm): ~540 nm | single absorption wavelength of the fluorescent probe ([1]; no ATP): ~400 nm | pH range in which ATP was detected ([2]; 10 μM, PBS pH 4.0 to 8.0, ATP 0.0-1.0 mM, acidic conditions of lysosomes): 4.8-5.8 pH | change of fluorescence intensity near 550 nm as ATP concentration increased ([2]; 10 μM, pH 5.5 PBS (0.1% acetonitrile), ATP 0.0-1.0 mM): greatly increased | ATP detection at near-neutral pH ([2]; pH 7.0-7.5, 10 μM, ATP 0.0-1.0 mM): not detected | selectivity in ATP detection among various cations and anions [3]: highly selective to ATP | cytotoxicity, cells died (HeLa cells; 100 μM, within 8 hours): about 20% | cytotoxicity, cells died (HeLa cells; up to 10 μM, within 24 hours): about 8% | lysosomal selectivity [4]: highly selective to lysosomes | colocalization factor with LysoTracker ([4]; 10 μM Compound 4 and 50 nM LysoTracker, 1 hour): about 0.95 | detection of lysosomal ATP in deep tissue [5]: selectively detected lysosomal ATP
